Laboratory results from patent US20150335696A1, “METHODS OF DEGRADING AGEs AND USES THEREOF” (ARKRAY, Inc., priority 2014, published 2015).

Experiment: AGEs-degrading activity: cleavage of AGEs crosslink model substance PPD, released benzoic acid measured by HPLC
Format: biochemical
Protocol: In the present example, AGEs-degrading activities of plant extracts were evaluated with 1-phenyl-1,2-propanedione (PPD) as an index.
The AGEs-degrading activity was evaluated by measuring the cleavage reaction of crosslinks in AGEs. Specifically, the evaluation was carried out in the following manner on the basis of the method described in Vasan et al. (Vasan S, et al., An agent cleaving glucose-derived protein crosslinks in vitro and in vivo. 1996. Nature; 382: pp. 275-278).
As a model substance for crosslinks in AGEs, 1-phenyl-1,2-propanedione (PPD) was used. A degradation reaction was caused by each extract sample with PPD as a substrate. More specifically, a reaction solution having the following composition was obtained by mixing the components in an Eppendorf tube, and the resultant mixture was incubated at 37° C. for 8 hours (n=3). […] The amount of benzoic acid released by the degradation of PPD in the supernatant was measured by HPLC carried out under the following conditions. Also, the amount of benzoic acid inherently contained in the extract sample was measured by HPLC carried out under the same conditions. Furthermore, as a positive control regarding the cleavage of crosslinks, the amount of released benzoic acid was measured in the same manner, except that 500 μL of 10 mmol/L phenacylthiazolium bromide (PTB) was used instead of the extract sample. […]

O=C(C[n+]1ccsc1)c1ccccc1.[Br-] [PTB, phenacylthiazolium bromide]
Relative activity Mean ± SD (%) (AGEs crosslink cleavage ratio relative to positive control PTB = 100%): 100.0% | AGEs crosslink cleavage ratio Mean ± SD (%) (PPD substrate, 37° C. for 8 hours, n=3, molar benzoic acid produced / molar PPD (B/P)): 38.2 ± 0.7%
